Columns and labels:
Helios = target: T1, Helios (Homo sapiens, UniProt Q96SW2+Q9UKS7); assay: Helios Cellular Degradation Assay (flow cytometry, Helios-PE antibody staining, 72 h); assay type: cell-based; conditions: Jurkat cells, 72 h incubation, flow cytometry
T1 construct: fluorescently labelled antibodies against Helios and Ikaros; endogenous in cells; host or cells: Jurkat cells
In short: (§1)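 Jurkat cells (80,000/well, RPMI+10% FBS) were exposed to compound for 72 h at 37 °C, then fixed, permeabilized and co-stained for 1 h with Ikaros-Alexa488 and Helios-PE antibodies. Intracellular protein levels were read by flow cytometry.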

Ikaros = target: T2, Ikaros (Homo sapiens, UniProt Q13422); assay: Helios Cellular Degradation Assay, Ikaros readout (flow cytometry, Ikaros-Alexa488 antibody staining, 72 h); assay type: cell-based; conditions: Jurkat cells, 72 h incubation, flow cytometry
T2 construct: fluorescently labelled antibodies against Helios and Ikaros; endogenous in cells; host or cells: Jurkat cells
T2 sequence (Q96SW2 whole entry partner): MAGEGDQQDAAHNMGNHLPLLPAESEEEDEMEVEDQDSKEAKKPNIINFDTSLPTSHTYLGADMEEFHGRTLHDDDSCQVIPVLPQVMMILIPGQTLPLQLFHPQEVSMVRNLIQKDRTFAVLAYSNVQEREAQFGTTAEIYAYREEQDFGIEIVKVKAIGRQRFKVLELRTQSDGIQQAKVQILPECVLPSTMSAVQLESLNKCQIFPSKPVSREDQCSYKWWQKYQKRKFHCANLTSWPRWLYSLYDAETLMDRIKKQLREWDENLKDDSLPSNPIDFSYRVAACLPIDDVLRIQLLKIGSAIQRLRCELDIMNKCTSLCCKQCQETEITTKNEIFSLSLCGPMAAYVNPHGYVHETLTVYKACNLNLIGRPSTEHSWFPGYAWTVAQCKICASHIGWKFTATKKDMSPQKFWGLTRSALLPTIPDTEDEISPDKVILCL
T2 sequence (Q16531 whole entry partner): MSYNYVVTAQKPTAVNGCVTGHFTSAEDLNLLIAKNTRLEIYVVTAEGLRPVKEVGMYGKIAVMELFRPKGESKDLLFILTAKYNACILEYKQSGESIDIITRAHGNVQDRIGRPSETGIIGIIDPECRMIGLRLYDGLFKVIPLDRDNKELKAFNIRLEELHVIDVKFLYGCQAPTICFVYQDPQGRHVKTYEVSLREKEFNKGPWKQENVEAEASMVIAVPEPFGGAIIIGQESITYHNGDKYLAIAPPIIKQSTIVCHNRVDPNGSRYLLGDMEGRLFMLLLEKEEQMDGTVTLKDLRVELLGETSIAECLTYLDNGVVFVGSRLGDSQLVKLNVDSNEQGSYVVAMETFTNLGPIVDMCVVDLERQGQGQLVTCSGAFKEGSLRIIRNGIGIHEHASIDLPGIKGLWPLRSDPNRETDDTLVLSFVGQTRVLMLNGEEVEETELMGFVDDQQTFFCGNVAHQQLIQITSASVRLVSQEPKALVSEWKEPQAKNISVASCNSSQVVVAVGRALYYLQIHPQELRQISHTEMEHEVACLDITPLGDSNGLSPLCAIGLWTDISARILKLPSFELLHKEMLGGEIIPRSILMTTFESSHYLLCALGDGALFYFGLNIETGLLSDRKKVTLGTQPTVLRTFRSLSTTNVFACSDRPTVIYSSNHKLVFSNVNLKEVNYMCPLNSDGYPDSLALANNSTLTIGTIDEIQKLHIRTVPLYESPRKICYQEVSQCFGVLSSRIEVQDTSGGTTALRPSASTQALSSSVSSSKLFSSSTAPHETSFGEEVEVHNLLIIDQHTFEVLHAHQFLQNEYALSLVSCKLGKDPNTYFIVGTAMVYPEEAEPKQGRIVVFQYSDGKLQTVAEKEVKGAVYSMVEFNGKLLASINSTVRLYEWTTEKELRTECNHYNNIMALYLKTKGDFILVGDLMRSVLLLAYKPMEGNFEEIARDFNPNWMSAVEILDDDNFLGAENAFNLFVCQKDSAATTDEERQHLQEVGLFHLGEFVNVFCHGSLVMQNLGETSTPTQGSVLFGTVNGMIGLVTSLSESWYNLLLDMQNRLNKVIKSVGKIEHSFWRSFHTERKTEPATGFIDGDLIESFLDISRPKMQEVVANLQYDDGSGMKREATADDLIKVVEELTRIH
T2 sequence (Q13422 whole entry): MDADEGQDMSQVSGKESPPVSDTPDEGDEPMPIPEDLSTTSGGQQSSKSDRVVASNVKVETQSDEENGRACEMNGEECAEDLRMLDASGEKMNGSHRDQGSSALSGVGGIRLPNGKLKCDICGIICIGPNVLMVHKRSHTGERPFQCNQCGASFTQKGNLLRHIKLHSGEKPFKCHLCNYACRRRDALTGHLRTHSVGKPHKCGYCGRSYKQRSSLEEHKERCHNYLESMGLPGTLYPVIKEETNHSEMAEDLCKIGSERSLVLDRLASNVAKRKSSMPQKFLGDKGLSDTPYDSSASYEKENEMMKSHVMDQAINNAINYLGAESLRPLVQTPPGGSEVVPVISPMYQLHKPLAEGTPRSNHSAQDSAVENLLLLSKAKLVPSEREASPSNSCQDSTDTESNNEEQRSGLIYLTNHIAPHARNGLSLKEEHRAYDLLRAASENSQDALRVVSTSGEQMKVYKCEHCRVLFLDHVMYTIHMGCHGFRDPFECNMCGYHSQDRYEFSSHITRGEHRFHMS
In short: as §1

T1 sequence (Q9UKS7 whole entry): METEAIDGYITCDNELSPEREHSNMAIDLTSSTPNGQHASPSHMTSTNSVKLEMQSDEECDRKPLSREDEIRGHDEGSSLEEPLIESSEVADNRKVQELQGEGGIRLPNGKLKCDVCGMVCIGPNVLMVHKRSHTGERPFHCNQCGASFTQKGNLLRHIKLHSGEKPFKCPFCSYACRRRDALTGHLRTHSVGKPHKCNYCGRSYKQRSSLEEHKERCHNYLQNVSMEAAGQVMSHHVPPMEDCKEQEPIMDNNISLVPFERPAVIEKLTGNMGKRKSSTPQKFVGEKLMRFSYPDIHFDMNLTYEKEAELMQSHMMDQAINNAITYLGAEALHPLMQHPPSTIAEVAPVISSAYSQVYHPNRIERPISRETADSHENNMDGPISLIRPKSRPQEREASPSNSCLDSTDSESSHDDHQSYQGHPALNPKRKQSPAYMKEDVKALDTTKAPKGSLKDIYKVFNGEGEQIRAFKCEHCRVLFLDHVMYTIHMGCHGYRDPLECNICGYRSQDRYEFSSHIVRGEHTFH
T1 sequence (Q96SW2 whole entry): as the sequence (Q96SW2 whole entry partner) above
T1 sequence (Q16531 whole entry partner): as the sequence (Q16531 whole entry partner) above

O=C1CCC(N2Cc3c(ccc(-c4cc(CN5CC(c6ccccc6)C5)ccn4)c3F)C2=O)C(=O)N1 (stereo not shown) [Example 208, 3-(4-Fluoro-1-oxo-5-(4-((3-phenylazetidin-1-yl)methyl)pyridin-2-yl)isoindolin-2-yl)piperidine-2,6-dione]
DC50 (Helios): 3 nM | Dmax (Helios; Jurkat, read-out: Helios Dmax): 88% | DC50 (Ikaros): > 10000 nM | Dmax (Ikaros; Jurkat, read-out: Ikaros Dmax): 13%
